Reference: PubChem BioAssay AID1963842 (Molecular Pharmacology Branch, DTP, NCI, 2024)

Test system: 677734-321-R-J1-PDC complex spheroid viability
Experiment: Anticancer human tumor 677734-321-R-J1-PDC patient-derived soft tissue sarcoma cell line growth inhibition [POLQ]
Conditions: for IC50: curve of first compound; for viability, T/C: stronger effect = lower value
Outline: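 Complex spheroid viability model combining PDC tumour cells with endothelial (HUVEC) and MSC stromal cells. Novobiocin, ART-558 or RP6685 were tested singly and in combination with standard and investigational anticancer drugs. Each was titrated in half-log steps from near clinical Cmax, or from 10 microM where Cmax was unknown.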

[1] = second compound 0.0316 µM, first compound 0.0316 µM
[2] = second compound 0.0316 µM, first compound 0.1 µM
[3] = second compound 0.0316 µM, first compound 0.316 µM
[4] = second compound 0.0316 µM, first compound 1 µM
[5] = second compound 0.0316 µM, first compound 3.16 µM
[6] = second compound 0.0316 µM, first compound 10 µM
[7] = second compound 0.1 µM, first compound 0.0316 µM
[8] = second compound 0.1 µM, first compound 0.1 µM
[9] = second compound 0.1 µM, first compound 0.316 µM
[10] = second compound 0.1 µM, first compound 1 µM
[11] = second compound 0.1 µM, first compound 3.16 µM
[12] = second compound 0.1 µM, first compound 10 µM
[13] = second compound 0.316 µM, first compound 0.0316 µM
[14] = second compound 0.316 µM, first compound 0.1 µM
[15] = second compound 0.316 µM, first compound 0.316 µM
[16] = second compound 0.316 µM, first compound 1 µM
[17] = second compound 0.316 µM, first compound 3.16 µM
[18] = second compound 0.316 µM, first compound 10 µM
[19] = second compound 1 µM, first compound 0.0316 µM
[20] = second compound 1 µM, first compound 0.1 µM
[21] = second compound 1 µM, first compound 0.316 µM
[22] = second compound 1 µM, first compound 1 µM
[23] = second compound 1 µM, first compound 3.16 µM
[24] = second compound 1 µM, first compound 10 µM
[25] = second compound 3.16 µM, first compound 0.0316 µM
[26] = second compound 3.16 µM, first compound 0.1 µM
[27] = second compound 3.16 µM, first compound 0.316 µM
[28] = second compound 3.16 µM, first compound 1 µM
[29] = second compound 3.16 µM, first compound 3.16 µM
[30] = second compound 3.16 µM, first compound 10 µM
[31] = second compound 10 µM, first compound 0.0316 µM
[32] = second compound 10 µM, first compound 0.1 µM
[33] = second compound 10 µM, first compound 0.316 µM
[34] = second compound 10 µM, first compound 1 µM
[35] = second compound 10 µM, first compound 3.16 µM
[36] = second compound 10 µM, first compound 10 µM
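Further: spheroids exposed to compounds for one week.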
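Wherever viability, T/C is given: 100% = vehicle DMSO treated spheroids.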

## CC1COCCN1c1cc(-c2ccnn2C)c2ccnc(-c3ccn[nH]3)c2n1 (stereo unspecified) + COC1C(OC(N)=O)C(O)C(Oc2ccc3c(O)c(NC(=O)c4ccc(O)c(CC=C(C)C)c4)c(=O)oc3c2C)OC1(C)C
Second compound 0.0316 µM
  IC50: 0.153 µM
Second compound 0.1 µM
  IC50: 0.145 µM
Second compound 0.316 µM
  IC50: 0.142 µM
Second compound 1 µM
  IC50: 0.146 µM
Second compound 3.16 µM
  IC50: 0.145 µM
Second compound 10 µM
  IC50: 0.127 µM
[1]
  viability, T/C: 98.5%
[2]
  viability, T/C: 65.1%
[3]
  viability, T/C: 23.7%
[4]
  viability, T/C: 15.9%
[5]
  viability, T/C: 6.88%
[6]
  viability, T/C: 15.2%
[7]
  viability, T/C: 97.5%
[8]
  viability, T/C: 61.8%
[9]
  viability, T/C: 25.2%
[10]
  viability, T/C: 16.6%
[11]
  viability, T/C: 8.53%
[12]
  viability, T/C: 17.1%
[13]
  viability, T/C: 95.8%
[14]
  viability, T/C: 61.8%
[15]
  viability, T/C: 22.7%
[16]
  viability, T/C: 19.8%
[17]
  viability, T/C: 6.32%
[18]
  viability, T/C: 15.3%
[19]
  viability, T/C: 110%
[20]
  viability, T/C: 62.7%
[21]
  viability, T/C: 23.8%
[22]
  viability, T/C: 16.6%
[23]
  viability, T/C: 7.91%
[24]
  viability, T/C: 16.6%
[25]
  viability, T/C: 102%
[26]
  viability, T/C: 61.2%
[27]
  viability, T/C: 26.3%
[28]
  viability, T/C: 16.6%
[29]
  viability, T/C: 6.66%
[30]
  viability, T/C: 14.4%
[31]
  viability, T/C: 98.1%
[32]
  viability, T/C: 57.9%
[33]
  viability, T/C: 20.1%
[34]
  viability, T/C: 17.1%
[35]
  viability, T/C: 8.68%
[36]
  viability, T/C: 16.7%

## CC1COCCN1c1cc(C2(S(C)(=N)=O)CC2)nc(-c2ccnc3[nH]ccc23)n1 (stereo unspecified) + COC1C(OC(N)=O)C(O)C(Oc2ccc3c(O)c(NC(=O)c4ccc(O)c(CC=C(C)C)c4)c(=O)oc3c2C)OC1(C)C
Second compound 0.0316 µM
  IC50: 5.96 µM
Second compound 0.1 µM
  IC50: 4.24 µM
Second compound 0.316 µM
  IC50: 3.12 µM
Second compound 1 µM
  IC50: 4.67 µM
Second compound 3.16 µM
  IC50: 3.85 µM
Second compound 10 µM
  IC50: 3.85 µM
[1]
  viability, T/C: 109%
[2]
  viability, T/C: 117%
[3]
  viability, T/C: 95.5%
[4]
  viability, T/C: 101%
[5]
  viability, T/C: 62.4%
[6]
  viability, T/C: 39.5%
[7]
  viability, T/C: 110%
[8]
  viability, T/C: 113%
[9]
  viability, T/C: 106%
[10]
  viability, T/C: 93%
[11]
  viability, T/C: 58.7%
[12]
  viability, T/C: 24.3%
[13]
  viability, T/C: 109%
[14]
  viability, T/C: 104%
[15]
  viability, T/C: 104%
[16]
  viability, T/C: 91.1%
[17]
  viability, T/C: 49.5%
[18]
  viability, T/C: 18.5%
[19]
  viability, T/C: 112%
[20]
  viability, T/C: 98.7%
[21]
  viability, T/C: 100%
[22]
  viability, T/C: 92.2%
[23]
  viability, T/C: 62.3%
[24]
  viability, T/C: 24.3%
[25]
  viability, T/C: 109%
[26]
  viability, T/C: 104%
[27]
  viability, T/C: 99.6%
[28]
  viability, T/C: 98.8%
[29]
  viability, T/C: 55.5%
[30]
  viability, T/C: 22.9%
[31]
  viability, T/C: 108%
[32]
  viability, T/C: 107%
[33]
  viability, T/C: 106%
[34]
  viability, T/C: 92%
[35]
  viability, T/C: 56%
[36]
  viability, T/C: 21.6%

## CCCS(=O)(=O)Nc1ccc(F)c(C(=O)c2c[nH]c3ncc(-c4ccc(Cl)cc4)cc23)c1F + COC1C(OC(N)=O)C(O)C(Oc2ccc3c(O)c(NC(=O)c4ccc(O)c(CC=C(C)C)c4)c(=O)oc3c2C)OC1(C)C
Second compound 0.0316 µM
  IC50: 6.53 µM
Second compound 0.1 µM
  IC50: 6.39 µM
Second compound 0.316 µM
  IC50: 6.59 µM
Second compound 1 µM
  IC50: 6.51 µM
Second compound 3.16 µM
  IC50: 6.73 µM
Second compound 10 µM
  IC50: 6.49 µM
[1]
  viability, T/C: 103%
[2]
  viability, T/C: 109%
[3]
  viability, T/C: 101%
[4]
  viability, T/C: 118%
[5]
  viability, T/C: 106%
[6]
  viability, T/C: 16.7%
[7]
  viability, T/C: 108%
[8]
  viability, T/C: 107%
[9]
  viability, T/C: 104%
[10]
  viability, T/C: 120%
[11]
  viability, T/C: 104%
[12]
  viability, T/C: 15.3%
[13]
  viability, T/C: 105%
[14]
  viability, T/C: 110%
[15]
  viability, T/C: 109%
[16]
  viability, T/C: 110%
[17]
  viability, T/C: 109%
[18]
  viability, T/C: 16.6%
[19]
  viability, T/C: 103%
[20]
  viability, T/C: 107%
[21]
  viability, T/C: 101%
[22]
  viability, T/C: 112%
[23]
  viability, T/C: 109%
[24]
  viability, T/C: 16.5%
[25]
  viability, T/C: 106%
[26]
  viability, T/C: 101%
[27]
  viability, T/C: 111%
[28]
  viability, T/C: 112%
[29]
  viability, T/C: 112%
[30]
  viability, T/C: 19.3%
[31]
  viability, T/C: 107%
[32]
  viability, T/C: 104%
[33]
  viability, T/C: 109%
[34]
  viability, T/C: 105%
[35]
  viability, T/C: 105%
[36]
  viability, T/C: 17.2%
